Results reported in patent US12076373B2, “Formulations for oral administration of active agents” (Entera Bio Ltd., priority 2015, dated 2024).

What was measured:
[1] = Dissolution test: release of SNAC from tablet formulations in simulated gastric buffer; type: physicochemical; details: tablet with 100 mg sodium bicarbonate vs tablet without, trypsin inhibitor, teriparatide, 100 ml simulated gastric buffer without pepsin, pH 2.0, 37° C., USP 23 Apparatus 2, 50 rpm
Procedure: The tablets were in a form of a homogeneous mixture.
Each tablet formulation was subjected to a dissolution test in 100 ml of simulated gastric buffer (without pepsin), pH 2.0, at 37° C., according to USP 23 Apparatus 2 (paddle) with 50 rotations per minute. The amount of released SNAC in each sample was determined chromatographically, using an HPLC apparatus with Cosmosil™ 5 C18-MS-II (4.6 ID×250 mm) column. Mobile phase consisted of 50% acetonitrile and 50% phosphoric acid solution (0.1%). Flow rate was 1 ml/minute and injection volume was 25 μl. Amount of released SNAC was calculated as a percentage of the amount of SNAC in the formulation.

[2] = Open label comparative pharmacokinetic study of oral teriparatide tablet in healthy volunteers; type: in vivo, human; details: oral tablet 0.75 mg teriparatide + SNAC + SBTI, with 150 ml of 3 mg/ml sodium bicarbonate solution vs 150 ml water; ten healthy volunteers, fasted; plasma
Procedure: An open label comparative pharmacokinetic study was performed on ten healthy volunteers. On different visits, each volunteer received the same oral tablet containing 0.75 mg of teriparatide, a recombinant form of parathyroid hormone (1-34) (PTH(1-34)). In the first visit, the tablet was administered with 150 ml water, whereas in the second visit the tablet was administered with 150 ml of 3 mg/ml sodium bicarbonate aqueous solution.
The formulation was composed of teriparatide (0.75 mg), SNAC (sodium 8-N-(2-hydroxybenzoyl)aminocaprylate), soybean trypsin inhibitor (SBTI) and a small amount of magnesium stearate.
Tablets were administered in the morning after an 8-hour overnight fast. At each visit a standard meal was provided 3 hours after drug administration. […] There was a two week period between the two visits.
To determine PTH(1-34) concentrations, blood samples (4 ml each) were drawn via an indwelling catheter from the forearm vein at predetermined time points during each visit. The cannula was flushed with 1.5 ml normal saline after each sampling. In addition, to avoid sample dilution, 1 ml of blood was drawn and discarded before the next sample. […] PTH(1-34) levels were measured using an IDS-iSYS automated assay for the measurement of intact PTH(1-34) in human plasma or serum. […] Relative absorption was determined based on the AUC (area under curve) parameter.

| dissolution of SNAC in tablets (released SNAC as a percentage of the amount of SNAC in the formulation) [1] | increase in absorption of PTH(1-34) (relative absorption based on AUC) [2] | SMILES |
| --- | --- | --- |
| considerably enhanced | – | O=C(O)CCCCCCCNC(=O)c1ccccc1O [SNAC, sodium 8-N-(2-hydroxybenzoyl)aminocaprylate] |
| – | about 35% | CC[C@H](C)[C@H](NC(=O)[C@H](CCC(=O)O)NC(=O)[C@H](CO)NC(=O)[C@@H](NC(=O)[C@@H](N)CO)C(C)C)C(=O)N[C@@H](CCC(N)=O)C(=O)N[C@@H](CC(C)C)C(=O)N[C@@H](CCSC)C(=O)N[C@@H](Cc1cnc[nH]1)C(=O)N[C@@H](CC(N)=O)C(=O)N[C@@H](CC(C)C)C(=O)NCC(=O)N[C@@H](CCCCN)C(=O)N[C@@H](Cc1cnc[nH]1)C(=O)N[C@@H](CC(C)C)C(=O)N[C@@H](CC(N)=O)C(=O)N[C@@H](CO)C(=O)N[C@@H](CCSC)C(=O)N[C@@H](CCC(=O)O)C(=O)N[C@@H](CCCN=C(N)N)C(=O)N[C@H](C(=O)N[C@@H](CCC(=O)O)C(=O)N[C@@H](Cc1c[nH]c2ccccc12)C(=O)N[C@@H](CC(C)C)C(=O)N[C@@H](CCCN=C(N)N)C(=O)N[C@@H](CCCCN)C(=O)N[C@@H](CCCCN)C(=O)N[C@@H](CC(C)C)C(=O)N[C@@H](CCC(N)=O)C(=O)N[C@@H](CC(=O)O)C(=O)N[C@H](C(=O)N[C@@H](Cc1cnc[nH]1)C(=O)N[C@@H](CC(N)=O)C(=O)N[C@@H](Cc1ccccc1)C(=O)O)C(C)C)C(C)C [PTH(1-34), teriparatide] |
